Assay results reported in PubChem BioAssay AID1645864 (Buhrlage Lab, Dana-Farber Cancer Institute and Novartis …, 2021).
The source made the active and inactive calls.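 The calls were made as follows: active = maximal inhibition of USP17 at or above 30% in the confirmation dose-response, a value not among the printed readouts; inactive = the rest.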

target: Ubiquitin carboxyl-terminal hydrolase 17-like protein 5 (Homo sapiens) (UniProt A8MUK1); assay: ubiquitin-specific protease 17 DUB inhibitors, concentration-effect assay, cell-free, verification of initial screening actives (AID 1645864); conditions: purified USP17, ubiquitin-rhodamine cleavage fluorescence, 3 h
Sequence (A8MUK1 whole entry, looked up): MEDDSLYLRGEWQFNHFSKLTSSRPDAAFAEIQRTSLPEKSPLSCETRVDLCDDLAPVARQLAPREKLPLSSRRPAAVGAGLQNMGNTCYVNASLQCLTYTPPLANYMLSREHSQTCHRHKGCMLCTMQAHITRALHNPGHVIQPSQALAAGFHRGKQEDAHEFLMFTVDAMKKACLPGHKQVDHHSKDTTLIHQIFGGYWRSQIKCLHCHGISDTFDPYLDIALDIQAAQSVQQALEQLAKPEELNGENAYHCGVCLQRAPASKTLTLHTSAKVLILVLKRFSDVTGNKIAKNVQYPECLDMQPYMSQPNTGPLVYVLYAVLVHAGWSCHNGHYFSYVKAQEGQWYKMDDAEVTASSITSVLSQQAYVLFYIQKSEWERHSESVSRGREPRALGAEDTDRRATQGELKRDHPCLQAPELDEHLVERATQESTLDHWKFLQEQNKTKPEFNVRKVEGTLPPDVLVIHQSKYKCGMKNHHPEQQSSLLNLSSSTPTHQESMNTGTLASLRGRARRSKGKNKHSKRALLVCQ

| SMILES | IC50 |
| --- | --- |
| COc1ccc(CN2CCCC23CCCN(C(=O)CCc2cccnc2)C3)cc1F (stereo not drawn) | 33.6 µM |
| CCCCNC(=O)C1Sc2nnc(-c3ccccc3)n2NC1c1ccccc1 (stereo not drawn) | 23.7 µM |
| COc1ccccc1CNC(=O)C1CCCN(c2nc3ccsc3c(=O)s2)C1 (stereo not drawn) | 4.2 µM |
| CC(C)NS(=O)(=O)c1cccc2c(NC(=O)C(Cc3ccccc3)NC(=O)c3ccccc3)cccc12 (stereo not drawn) | > 50 µM (inactive) |
| O=C(NC1CCN(Cc2ccccc2)CC1)c1[nH]nc2c1CCc1ccccc1-2 | > 50 µM (inactive) |
| O=C(c1cnccn1)N1CCc2[nH]c3ccc(F)cc3c2C1 | > 50 µM (inactive) |
| Cc1ccc(-c2ccc(N3CCOCC3)nn2)cc1S(=O)(=O)N1CCOCC1 | > 50 µM (inactive) |
| Cc1nc(-c2ccc3c(c2)nnn3CCN2CCOCC2)no1 | > 50 µM (inactive) |
| O=C(CCCCn1c(=O)c2ccccc2n(CC(=O)Nc2ccc(F)c(Cl)c2)c1=O)NCc1ccco1 | > 50 µM (inactive) |
| O=C(c1cscn1)N1CCC2(CC1)CC1(CO2)Nc2ccccc2-n2cccc21 (stereo not drawn) | > 50 µM (inactive) |
| NS(=O)(=O)c1ccc(Cl)c(C(=O)OCc2csc(Nc3ccccc3)n2)c1 | > 50 µM (inactive) |
| Cc1ccc2cc3c(nc2n1)CCN(Cc1ccc(F)cc1)C3 | > 50 µM (inactive) |
| COc1cccc(/C=C/c2nc(C#N)c(N3CCN(C(=O)c4cccs4)CC3)o2)c1 | > 50 µM (inactive) |
| O=C(Nc1cccc2ccccc12)N1CCC(c2nc3c(nnn3Cc3ccc(F)cc3)c(=O)[nH]2)CC1 | 28.6 µM |
| Cc1nc2cccnc2n1C1CCN(C(=O)c2cc3cc(Cl)ccc3[nH]2)C1 (stereo not drawn) | > 50 µM (inactive) |
| COc1ccccc1S(=O)(=O)N1CC[C@@H]2CN(C)[C@@H]2C1 | 32.2 µM |
| Cc1cc(-n2c(C)cc(-c3csc(N)n3)c2C)no1 | > 50 µM (inactive) |
| c1ccc(Cc2nn3c(-c4cccnc4)nnc3c3ccccc23)cc1 | 0.42 µM |
| COc1cc(COc2ccc3c(C)c(CC(=O)N4CC[C@@]5(O)CCCC[C@H]5C4)c(=O)oc3c2C)cc(OC)c1OC | 38.9 µM |
| O=C1COc2ccc(NC(=O)c3cnn(Cc4ccccc4)c3)cc2N1 | 39.4 µM |
| Cn1ccnc1CN1C[C@H]2CCN(c3ncccn3)C[C@H]2C1 | > 50 µM (inactive) |
| Cc1sc(NC(=O)/C=C/c2ccco2)nc1-c1ccccc1 | > 50 µM (inactive) |
| O=S(=O)(c1cccc(F)c1)N1CCc2nc3ccccc3n2CC1 | 3.12 µM |
| CCCC(O)CCCCCCCc1cc(O)cc(O)c1C(=O)OC(CCC)CCCCCCCc1cc(O)cc(O)c1 (stereo not drawn) | 28.6 µM |
| COC(=O)c1cc2c(ccn2C)n1CC(=O)NC1CC1 | > 50 µM (inactive) |
| C=C(NC(=O)C(=C)NC(=O)c1csc(C2=N[C@@H]3c4csc(n4)[C@H]4NC(=O)c5csc(n5)[C@H]([C@](C)(O)[C@@H](C)O)NC(=O)C5CSC(=N5)/C(=C/C)NC(=O)C([C@@H](C)O)NC(=O)c5csc(n5)[C@]3(CC2)NC(=O)[C@H](C)NC(=O)C(=C)NC(=O)[C@H](C)NC(=O)C([C@@H](C)CC)NC2C=Cc3c(C(C)O)cc(nc3[C@H]2O)C(=O)OC4C)n1)C(N)=O (stereo partly drawn) | > 50 µM (inactive) |
| CC(=O)c1cccc(NC(=O)c2ccc(-c3csc(C)n3)cc2)c1 | > 50 µM (inactive) |
| O=C(Nc1ccc(N2CCOCC2)cc1)c1ccc(-c2ccc(N3CCCC3)nn2)cc1 | > 50 µM (inactive) |

More lines, now with the values ahead:

| IC50 | SMILES |
| --- | --- |
| > 50 µM (inactive) | Cc1ccc(NC(=O)c2nnn(-c3ccccc3)n2)cc1F |
| 27.1 µM | Cc1cccc(NC(=O)c2nn(C)c3ccccc3c2=O)c1 |
| > 50 µM (inactive) | CN1c2ccccc2CN(CC(N)=O)CC1Cc1ccccc1 (stereo not drawn) |
| > 50 µM (inactive) | Cc1ccc(OCCn2c(=N)n(C(C)C)c3ccccc32)cc1 |
| 9.1 µM | Cc1ccc2cc(CNc3ccccc3)c(=O)n(CC(=O)Nc3ccccc3C)c2c1 |
| > 50 µM (inactive) | COc1ccc(CNC(=O)CN2C(=O)C(C)=C(c3ccc(C)cc3)S2(=O)=O)cc1 |
| 34 µM | O=C(NCc1ccccc1)Nc1cccc2ccccc12 |
| 0.464 µM | CCOc1ccc2c(c1)c(=O)c(C(=O)c1ccc(C)cc1)cn2CC(=O)Nc1ccc(OC)c(OC)c1 |
| 16.3 µM | CCCCCn1c(Sc2ccc(C)cc2)nc2c1c(=O)[nH]c(=O)n2C |
| 24.9 µM | COC(=O)c1ccc(NC(=O)CSc2nnc(-c3ccc(O)cc3)n2Cc2ccco2)cc1 |
| > 50 µM (inactive) | COc1ccc(NC(=O)CSc2nnc(Cc3cccc4ccccc34)n2C)cc1 |
| > 50 µM (inactive) | CCOc1ccc(C2=NCCNC3=C2C(c2ccccc2)N(c2ccccc2)C3=O)cc1 (stereo not drawn) |
| > 50 µM (inactive) | COc1ccc(CCNC(=O)c2cc3ccccc3s2)cc1OC |
| > 50 µM (inactive) | COc1ccc(/C=C/c2ccnc3nc(-n4cccc4)nn23)cc1 |
| > 50 µM (inactive) | Cc1ccc(C)c(-n2c(C)cc(/C=C3/C(=N)N4C(c5ccc(F)cc5)=CSC4=NC3=O)c2C)c1 |
| > 50 µM (inactive) | Cc1ccccc1-c1nc(CN(C)S(=O)(=O)c2ccccc2)c(C)o1 |
| 23.7 µM | CSc1ccc(CNC(=O)CC2CCN(S(=O)(=O)c3ccc(C)cc3)CC2)cc1 |
| 27.9 µM | Cc1ccc(C(=O)Nc2nc3n(n2)C(c2ccccc2)CC(=O)N3)cc1 (stereo not drawn) |
| 34.2 µM | Cc1ccc(CNC(=O)c2ccc(N3C(=O)[C@@H]4Cc5ccccc5CN4C3=O)cc2)cc1 |
| > 50 µM (inactive) | CCOc1ccc(NC(=O)COc2cccc(-n3cnnn3)c2)cc1 |
